Here are results for nine molecules from patent US20240262842A1, “SMALL MOLECULE INHIBITORS OF KRAS G12C MUTANT” (Merck Sharp & Dohme LLC, priority 2021, published 2024).

This assay concerns the target biotinylated KRAS G12C protein (GMP-PNP loaded) and GST-tagged Ras binding domain of c-RAF (Homo sapiens, UniProt P01116, C118S/C51S/C80L/G12C). Nature of the assay: RAS:RAF-RBD binding assay (TR-FRET). To be noted: 30-minute incubation of compound with KRAS G12C before RAF-RBD; Table 4; read-out: IC50. In general terms: Time-resolved FRET reads energy transfer from a long-lived donor to a nearby acceptor.
`Cc1nc2c3c(c(C(F)(F)F)cc2n1C)-c1cccn2c(C(=O)c4cc(F)c(NC(=O)/C=C/CN5CC6(CCCOC6)C5)c(F)c4)cc(c12)CCO3` [Example 253, mono((E)-2-(4-(4-(6-oxa-2-azaspiro[3.5]nonan-2-ium-2-yl)but-2-enamido)-3,5-difluorobenzoyl)-9,10-dimethyl-7-(trifluorometh-yl)-13,14-dihydro-9H-imidazo[4″,5″:5′,6′]benzo-[1′,2′:2,3]oxocino[4,5,6-hi]indolizin-11-ium) mono-(2,2,2-trifluoroacetate)]: the IC50 (as a rule, the midpoint of a concentration-inhibition curve) came out at 24.8 nM.

`Cc1nc2c3c(c(C(F)(F)F)cc2n1C)-c1cccn2c(C(=O)c4cc(F)c(NC(=O)/C=C/CNC5CCOC5)c(F)c4)cc(c12)CCO3` (single isomer, unassigned) [Example 269, (E)-N-(4-(9,10-dimethyl-7-(trifluoromethyl)-13,14-dihydro-9H-imidazo-[4″,5″:5′,6′]benzo[1′,2′: 2,3]oxocino[4,5,6-hi]-indolizine-2-carbonyl)-2,6-difluorophenyl)-4-((tetrahydrofuran-3-yl)-amino)but-2-enamide]: the IC50 is 9.82 nM.

Take `Cc1nc2c3c(c(C(F)(F)F)cc2n1C)-c1cccn2c(C(=O)c4cc(F)c(NC(=O)/C=C/CN5CC6C(CO)C6C5)c(F)c4)cc(c12)CCO3` (single isomer, unassigned) [Example 278, (E)-3-(4-((4-(9,10-dimeth-yl-7-(trifluoromethyl)-13,14-dihydro-9H-imidazo-[4″,5″:5′,6′]-benzo[1′,2′:2,3]oxocino-[4,5,6-hi]indolizine-2-carbonyl)-2,6-difluoro-phenyl)amino)-4-oxobut-2-en-1-yl)-6-(hydroxy-methyl)-3-azabicyclo-[3.1.0]hexan-3-ium 2,2,2-trifluoroacetate]: the IC50 was 44.3 nM.

For the molecule “(Z)-N-(4-((4-(9,10-dimeth- yl-7-(trifluoromethyl)- 13,14-dihydro-9H-imid- azo[4″,5″:5′6′]benzo- [1′,2′:2,3]oxocino[4,5,6- hi]indolizine-2-carbonyl)- 2,6-difluorophenyl)amino)- 3-fluoro-4-oxobut-2-en-1- yl)-1-methylcyclopropan- 1-aminium2,2,2-trifluoro- acetate [Example 261]”, the IC50 worked out at 22.2 nM.

For the molecule `Cc1nc2c3c(c(C(F)(F)F)cc2n1C)-c1cccn2c(C(=O)c4cc(F)c(NC(=O)/C(F)=C/CNC5(C)CCOCC5)c(F)c4)cc(c12)CCO3` (atropisomer, axis not shown) [Example 296, (Z)-N-(4-(9,10-dimethyl-7-(trifluoromethyl)-13,14-dihydro-9H-imidazo[4″,5″:5′,6′]benzo[1′,2′:2,3]oxocino[4,5,6-hi]indolizine-2-carbonyl)-2,6-difluorophenyl)-2-fluoro-4-((4-methyltetrahydro-2H-pyran-4-yl)amino)but-2-enamide], the IC50 was determined as 14.8 nM.

As for `CC1Cc2cc(C(=O)c3cc(F)c(NC(=O)/C=C/CN[C@H]4CCOC4)c(F)c3)n3cccc(c23)-c2c(C(F)(F)F)cc3c(ncn3C)c2O1` (single isomer, unassigned) [Example 271], the IC50 came to 13.6 nM.

With `Cc1nc2c3c(c(C(F)(F)F)cc2n1C)-c1cccn2c(C(=O)c4cc(F)c(NC(=O)/C=C/CNCC5(CO)CC5)c(F)c4)cc(c12)CCO3` [Example 281, (E)-4-((4-(9,10-dimethyl-7-(trifluoromethyl)-13,14-dihydro-9H-imidazo-[4″,5″:5′,6′]benzo[1′,2′: 2,3]oxocino[4,5,6-hi]-indolizine-2-carbonyl)-2,6-difluorophenyl)-amino)-N-((1-(hydroxy-methyl)cyclopropyl)meth-yl)-4-oxobut-2-en-1-aminium 2,2,2-trifluoro-acetate], the 50% inhibitory concentration (IC50) was found to be 3.8 nM.

For the molecule `Cc1nc2c3c(c(C(F)(F)F)cc2n1C)-c1cccn2c(C(=O)c4cc(F)c(NC(=O)/C=C/CN[C@H]5CCCC[C@H]5O)c(F)c4)cc(c12)CCO3` [Example 265], the IC50 stood at 12.3 nM.

As for `Cc1nc2c3c(c(C(F)(F)F)cc2n1C)-c1cccn2c(C(=O)c4cc(F)c(NC(=O)/C=C/CN[C@@H]5CCCC[C@@H]5O)c(F)c4)cc(c12)CCO3` [Example 264], the IC50 was determined as 7.34 nM.
